“Also recorded” adds a separate entry of the source. Read-outs that look alike come from different tables or passages of the source.
What was measured:
PAC1-R = biological target: T1, PAC1-R (Homo sapiens, UniProt P41586); experiment: cAMP accumulation assay in PAC1-CHO cells; format: cell-based
T1 construct: expressed in transfected cells; host or cells: PAC1-CHO cells (CHO cells expressing PAC1-R); That they are transfected is inferred from the cell line's name
T1 sequence (P41586 21-468): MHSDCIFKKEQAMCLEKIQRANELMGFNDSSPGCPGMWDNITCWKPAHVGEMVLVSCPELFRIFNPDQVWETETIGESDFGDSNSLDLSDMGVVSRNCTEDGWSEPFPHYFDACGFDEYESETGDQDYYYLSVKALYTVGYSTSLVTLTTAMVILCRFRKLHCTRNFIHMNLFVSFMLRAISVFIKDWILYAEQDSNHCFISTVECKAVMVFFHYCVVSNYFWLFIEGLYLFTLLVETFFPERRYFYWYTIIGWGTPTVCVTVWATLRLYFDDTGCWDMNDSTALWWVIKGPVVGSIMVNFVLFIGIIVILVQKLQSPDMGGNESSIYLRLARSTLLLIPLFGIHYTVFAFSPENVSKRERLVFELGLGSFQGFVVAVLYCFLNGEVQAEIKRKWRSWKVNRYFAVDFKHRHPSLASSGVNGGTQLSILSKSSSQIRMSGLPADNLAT
Procedure: PAC1-CHO cells cultured in Dulbecco’s Modified Eagle’s Medium (DMEM) at 37 °C were scraped off the surface with rubber policeman, washed twice with PBS and the density of the cells was adjusted to 2 × 10^6 /mL. Peptides were added to 500 uL cells suspension with the corresponding varying working concentrations of the detected factor. After incubation at 37 °C for 5-10 min cells were harvested and the lysates were subjected to cAMP quantification using the enzyme immunoassay kit for cAMP (Biyuntian, Shanghai, China), following the manufacturer’s instructions. Protein concentration of each sample was determined using BCA assay, and the cAMP level of each sample was calculated following the formula: cAMP level (pmol/mg protein) = cAMP concentration (pmol/mL)/protein concentration (mg/mL). The cAMP level in each sample was plotted as the percentage (%) of the maximal cAMP level in cells treated with PACAP27 versus the logarithmic value of the peptide concentrations. All experiments were run with at least four parallel samples and were repeated three times.
The data are means ± SEM of four experiments

PAC1 receptor = system: PAC1 receptor; design: method as in 2 sources, one per row (each row's own in cited_ref): ref Yu et al. [2014] ||| ref Vaudry et al. [2009]; settings: vs VIP, ref Yu et al. [2014], cited from earlier work
Source text: The retinoprotective effects of PACAP are well-documented and have been proven in different injury models, such as excitotoxic, ischemic, UV light-induced, traumatic, diabetic and oxygen-induced injuries (Atlasz et al. [2008], [2011], [2016]; Kvarik et al. [2016]; Shioda et al. [2016]; Szabadfi et al. [2016]; Vaczy et al. [2016]). […] P ...

[1] = system: retina (BCCAO-induced retinopathy); experiment: Retinal layer thickness / morphology after bilateral carotid artery occlusion (BCCAO), eye drops; format: in vivo, rat (male); settings: for Retinoprotective efficacy of eye drops, overall / compared with untagged peptide: topical eye drops in SOCB
Procedure: Adult male rat litters were housed in the animal facility in individual cages in a 12 h light-dark cycle with food and water ad libitum. Animal housing, care and application of experimental procedures were in accordance with institutional guidelines under approved protocols (No: BA02/2000–26/2017, University of Pecs). Under isoflurane anesthesia, common carotid arteries were exposed on both sides through a midline incision and then ligated with a 3–0 filament. A group of animals (sham group) underwent all steps of the operating procedure except ligation of the carotid arteries. Immediately following the operation, the right eye of the animals was treated with derivatives of PACAP (PACAP-TAT /n = 17/ or VIP-TAT /n = 17/) eye drops (1 μg/drop). Dose and schedule of the eye drop treatments were based on our previous experiments (Werling et al. [2016]). In the experiment for histological analysis, the different derivatives were dissolved in benzalkonium solution for ophthalmic use (solutio ophthalmica cum benzalkonio (SOCB)). The left eye, serving as a control, was treated with vehicle containing neither PACAP-TAT nor VIP-TAT. Animals were treated for five consecutive days, twice a day with one drop of drug, under brief isoflurane anesthesia (max. 5 min).
Fourteen days after the operation, rats (n = 10 SHAM and n = 24 BCCAO) were killed with anesthetic and the eyes were processed for histology. The eyes were removed and the retinas were solved in phosphate buffered saline (PBS), fixed in 4% paraformaldehyde dissolved in 0.1 M phosphate buffer (PB) (Sigma, Budapest, Hungary) and embedded in Durcupan ACM resin (Sigma, Budapest, Hungary). Retinas were cut at 2 μm and stained with toluidine blue dye (Sigma, Hungary). Sections were mounted in DPX medium (Sigma, Hungary) and photographs were taken with a digital CCD camera using the Spot program. Central retinal areas within 1 mm from the optic nerve were used (n = 5 measurements from one tissue block). The following parameters were measured: (i) cross-section of the retina from the outer limiting membrane (OLM) to the inner limiting membrane (ILM), (ii) the width of individual retinal layers (outer nuclear layer [ONL], outer plexiform layer [OPL], inner nuclear layer [INL], inner plexiform layer [IPL]), (iii) the number of cells/100 μm section length in the GCL, and the (iv) number of cells/[…]. Results are presented as mean ± SEM. Statistical comparisons were made using the two-way ANOVA test followed by Tukey’s post hoc analysis.
(§1) Fig. 4 Quantification of retinal layers in SHAM+SOCB, in SHAM+PACAP-TAT, in BCCAO+SOCB, and in BCCAO+PACAP-TAT animals; the right eye was treated with PACAP-TAT eye drops, the left eye served as controls receiving only SOCB. Comparison of all retinal layers (a–e). […] Statistical significance (*p < 0.05 vs. SHAM+SOCB retinas, #p < 0.05 vs. BCCAO+SOCB retinas) was calculated by two-way ANOVA followed by Fischer’s post hoc test
as §1, with “6” for “4”, “SHAM+VIP-TAT,” for “SHAM+PACAP-TAT,”, “BCCAO+VIP-TAT” for “BCCAO+PACAP-TAT”, “VIP-TAT” for “PACAP-TAT”, “control” for “controls”

## CC[C@H](C)[C@H](NC(=O)[C@H](CO)NC(=O)[C@H](CC(N)=O)NC(=O)[C@H](CC(C)C)NC(=O)[C@H](Cc1ccc(O)cc1)NC(=O)[C@H](CCCCN)NC(=O)[C@H](CCCCN)NC(=O)[C@@H](NC(=O)[C@H](C)NC(=O)[C@H](CCSC)NC(=O)[C@H](CCC(N)=O)NC(=O)[C@H](CCCCN)NC(=O)[C@H](CCCNC(=N)N)NC(=O)[C@H](CC(C)C)NC(=O)[C@H](CCCNC(=N)N)NC(=O)[C@@H](NC(=O)[C@H](Cc1ccc(O)cc1)NC(=O)[C@H](CC(N)=O)NC(=O)[C@H](CC(=O)O)NC(=O)[C@@H](NC(=O)[C@H](Cc1ccccc1)NC(=O)[C@@H](NC(=O)[C@H](C)NC(=O)[C@H](CC(=O)O)NC(=O)[C@H](CO)NC(=O)[C@@H](N)Cc1c[nH]cn1)C(C)C)[C@@H](C)O)[C@@H](C)O)C(C)C)C(=O)N[C@@H](CC(C)C)C(=O)N[C@@H](CC(N)=O)C(=O)NCC(=O)N[C@@H](CCCNC(=N)N)C(=O)N[C@@H](CCCCN)C(=O)N[C@@H](CCCCN)C(=O)N[C@@H](CCCNC(=N)N)C(=O)N[C@@H](CCCNC(=N)N)C(=O)N[C@@H](CCC(N)=O)C(=O)N[C@@H](CCCNC(=N)N)C(=O)N[C@@H](CCCNC(=N)N)C(=O)N[C@@H](CCCNC(=N)N)C(=O)N1CCC[C@H]1C(=O)N[C@@H](CCC(N)=O)C(=O)O [VIP-TAT]
PAC1-R; VIP-TAT vs VIP
  EC50 as fraction of the EC50 of VIP: about 1/200
PAC1-R; tagged vs untagged peptide
  Effect of TAT-tagging on activation of PAC1-R (cAMP), in words: enhanced the activity of VIP on the activation of PAC1-R
PAC1 receptor
  Activity on / affinity for PAC1 receptor relative to VIP: higher activity on the activation of PACAP preferring PAC1receptor than VIP
PAC1 receptor; listed as VIP bound to TAT peptide
  Activity on / affinity for PAC1 receptor relative to VIP: higher affinity for PAC1-R
[1]; BCCAO + eye drops, OPL almost disappeared in several BCCAO-induced degenerated retinas
  OPL preservation after BCCAO: preserved
[1]; BCCAO + eye drops, toluidine blue sections, 14 days, severe degeneration in BCCAO+SOCB
  Retinal degeneration in light microphotographs after BCCAO: only mild degeneration
[1]; BCCAO
  Retinoprotective efficacy of eye drops, overall / compared with untagged peptide: attenuate ischemic retinal degeneration via the PAC1 receptor
[1]; BCCAO, listed as TAT-bound VIP
  Retinoprotective efficacy of eye drops, overall / compared with untagged peptide: a similar degree of protection
[1]; BCCAO, listed as VIP bound to TAT peptide
  Retinoprotective efficacy of eye drops, overall / compared with untagged peptide: could effectively traverse the ocular barriers and exert a neuroprotective effect in the retina; also recorded: much stronger retinoprotective effects when bound to TAT
[1]; BCCAO, eye drops 1 μg/drop, twice a day, five consecutive days, in SOCB, right eye, left eye SOCB control, 14 days, p < 0.05 vs. BCCAO+SOCB
  Retinal layer thickness (OLM-ILM, ONL, OPL, INL, IPL) after BCCAO: significant amelioration in all retinal layers; also recorded: improved the structure of all the retinal layers
[1]; eye drops alone in sham animals, 1 μg/drop, twice a day, five consecutive days, in SOCB, histology 14 days after operation
  Change of retinal thickness in sham animals: did not cause any changes in the retinal thickness
